Measured values from patent US5969174A, “Competitive inhibitors of glyoxalase I and method of generating such competitive inhibitors inside tumor cells” (priority 1998, dated 1999).

How the values were obtained:
HL60 cells [1] = settings: cited from earlier work
HL60 cells [2] = settings: literature (15); cited from earlier work
L1210 cells = test: Growth inhibition / cytotoxicity, murine leukemia L1210 cells in culture; type: cell-based
[3] = tested on: B16 melanotic melanoma cells; test: Growth inhibition, B16 melanotic melanoma cells in culture; type: cell-based, murine
Experimental: As a consequence, they are the strongest competitive inhibitors of human GlxI yet described, Table 1. […] With both cell lines there was some correlation between the Ki values of the enediol analogs and the IC50 values of the corresponding diethyl esters.
^d Sp-bromobenzylglutathione diethyl ester. Cells were incubated for
48 h in RPMI 1640/10% fetal calf serum (37° C.) in the absence and
in the presence of enzyme inhibitor. After the initial addition of
inhibitor at time zero, fresh inhibitor was added every 12 h in order to
compensate partially for the loss of inhibitor due to spontaneous
hydrolytic deethylation in the growth medium.

splenic lymphocytes = test: Toxicity toward nonproliferating splenic lymphocytes; type: cell-based; settings: L1210 cells versus splenic lymphocytes
Text: Conditions: See Table 1. Error bars represent standard deviations for triplicate determinations. Different symbols correspond to experiments carried out on different days.
This is illustrated for 2(Et)2 and S-p-bromobenzylglutathionediethyl ester by the dose-response curves of FIG. 3. […] Therefore, tumor cells might not be able to detoxify the inhibitors as rapidly as normal cells. In order to determine whether this could be a factor in the present study, the glyoxalase activities in both L1210 cells and splenic lymphocytes were determined. Indeed, while the GlxI activities in the two cell lines are nearly equal, the GlxII activity in L1210 cells is about 10-fold lower than that in splenic lymphocytes. The activities of GlxI and GlxII in L1210 cells were respectively 0.31±0.03 U/mg and 0.02±0.003 U/mg, while the activities in splenic lymphocytes were respectively 0.36±0.03U/mg and 0.20±0.03 U/mg.

human erythrocyte GlxI = settings: of the unethylated species with human erythrocyte GlxI (17); read-out: Ki, competitive inhibition constant; cited from earlier work
human tumor cell lines = settings: literature; cited from earlier work
GlxII = settings: cited from earlier work
[4] = tested on: rat adrenal pheochromocytoma PC-12 cells; settings: literature (26); read-out: IC50, growth of PC-12 cells; cited from earlier work

## N[C@@H](CCC(=O)N[C@@H](CSCc1ccc(Br)cc1)C(=O)NCC(=O)OC1CCCC1)C(=O)OC1CCCC1 [dicyclopentyl ester of S-p-bromobenzylglutathione]
HL60 cells [1]; literature (14)
  potency relative to the diethyl ester, HL60: twice as potent as the diethyl ester
HL60 cells [2]
  concentration of intracellular methylglyoxal: increased the measured concentration of intracellular methylglyoxal

## CCOC(=O)CNC(=O)[C@H](CSCc1ccc(Br)cc1)NC(=O)CC[C@H](N)C(=O)OCC [p-BrbzylSG(Et)2, Sp-bromobenzylglutathione diethyl ester, reference compound]
L1210 cells; L1210 cells
  relative potency, L1210: as potent as 2(Et)2 and 3(Et)2
L1210 cells; Mus musculus, L1210, 48 h, RPMI 1640/10% fetal calf serum, 37° C., fresh inhibitor every 12 h, mean ± SD, read-out: IC50, 50% growth inhibition, L1210
  IC50: 9.8 ± 3.2 µM
[3]; Mus musculus, 48 h, RPMI 1640/10% fetal calf serum, 37° C., fresh inhibitor every 12 h, mean ± SD, read-out: IC50, 50% growth inhibition, B16
  IC50: 15 ± 5 µM
[3]; versus 3(Et)2
  relative potency, B16: about half as potent as 3(Et)2
Splenic lymphocytes; listed as S-p-Bromobenzylglutathione diethyl ester
  toxicity to splenic lymphocytes / selectivity in words: selective toxicity
Splenic lymphocytes; listed as S-p-bromobenzylglutathione diethyl ester
  toxicity to splenic lymphocytes / selectivity in words: significant selective toxicity to L1210 cells
Human erythrocyte GlxI
  Ki: 0.17 µM
HL60 cells [1]; lower with HL60, literature (13)
  IC50 with HL60 cells versus nonproliferating human neutrophils: about 5 -fold
Human tumor cell lines
  toxicity to human tumor cell lines: toxic to a range of different human tumor cell lines in culture
GlxII
  substrate for GlxII in words: cannot serve as a substrate for GlxII

## CC(C)OC(=O)CNC(=O)[C@H](CSC(=O)OCC1c2ccccc2-c2ccccc21)NC(=O)CC[C@H](N)C(=O)OC(C)C [S-fluorenylmethoxycarbonyl glutathionediisopropyl ester]
[4]
  IC50: 275 µM
